Experimental data as given in the METLIN SMRT retention time set (Domingo-Almenara et al. 2019).

Experiment: gradient 5% acetonitrile 3 min, to 50% in 2 min, to 85% in 15 min, held 3 min, 100 µL/min
Conditions: column: Zorbax Extend-C18 2.1 x 50 mm; eluents: water / acetonitrile, 0.1% formic acid
How it was run: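 Each retention time is based on an adduct peak selected computationally and verified by manual inspection. Measurements used HPLC–quadrupole time-of-flight mass spectrometry in positive and negative ionization mode on mixtures of ~100 pure standards. Chromatography ran on a Zorbax Extend-C18 column (2.1 × 50 mm, 1.8 μm) at 100 μL/min with water and acetonitrile, each containing 0.1% formic acid, and dead and dwell volumes of 40 μL and 900 μL.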

Row | Structure (SMILES) | RP-LC retention time [s]
1 | Cc1nn(-c2ccc(N3CCCCC3)nn2)c(C)c1CCC(=O)NCCc1ccco1 | 660
2 | CCn1nc(C)c(CNC(=O)Nc2cccc(C(=O)OC)c2)c1C | 663
3 | COc1ccccc1NC(=O)N1CCN(Cc2nc3ccc(Cl)cc3o2)CC1 | 731
4 | CCCC(=O)Nc1ccc(S(=O)(=O)NCCn2ncccc2=O)cc1 | 612
5 | CCC(C)NC(=O)N1CCc2c(c(-c3nc(-c4cccc(F)c4)no3)nn2C)C1 (centres undefined) | 904
6 | CCN1CCN(C(=O)Cc2c(C(=O)O)c(C)cn2CC)CC1 | 568
7 | COc1ccccc1-c1noc(Cn2c(=O)n(Cc3ccc(C)cc3)c(=O)c3sccc32)n1 | 1100
8 | Cc1ccc(NC(=O)c2nc3ccccc3[nH]c2=O)c(C)c1 | 778
9 | COc1ccc(N2CC(c3noc(-c4ccccc4Cl)n3)CC2=O)cc1OC (centres undefined) | 880
10 | O=C(CCC1CCCC1)NCCc1noc(C2CC2)n1 | 807
11 | COc1ccc(CNC(=O)c2csc(-c3cn(C)c4ncccc34)n2)cc1 | 867
12 | O=C(NCCN1CCOCC1)C1c2ccccc2CC(=O)N1Cc1ccccc1 (centres undefined) | 603
13 | COc1ccc(NC(=O)N2CCC3(CC2)NC(=O)c2ccccc2N3C)c(OC)c1 | 649
14 | Cn1ncc2c(NCc3ccccc3)nc(NCc3ccccc3)nc21 | 652
15 | Cc1nnc(N2CCCC(C(=O)NCc3ccccn3)C2)c2nn(-c3ccccc3)c(C)c12 (centres undefined) | 566
16 | COc1cc(NC(=O)NCC(c2cccn2C)N2CCOCC2)cc(OC)c1 (centres undefined) | 563
17 | Cc1ccc(S(=O)(=O)N2CCC(c3cc4n(n3)CCCN(C)C4=O)CC2)cc1C | 806
18 | Cc1ccc(C(=O)CC2(O)C(=O)Nc3ccccc32)cc1C (centres undefined) | 751
19 | COc1ccc(C(=O)NC2CCN(c3cc(-c4ccc(Cl)cc4)[nH]n3)C2)cc1 (centres undefined) | 776
20 | CN(Cc1ccccc1)C(=O)c1ccc(-c2cccs2)nc1 | 920
21 | COCCCN(CC(=O)N1CCc2sccc2C1COc1ccc(Cl)cc1)C(=O)NC(C)C (centres undefined) | 996
22 | Clc1ccc2nc(-c3ccc(N4CCOCC4)cc3)c(Nc3ccccc3)n2c1 | 752
23 | O=C(Cc1ccc(NC(=O)c2ccsc2)cc1)NCc1cccs1 | 725

Row | Structure (SMILES) | RP-LC retention time [s]
24 | O=C(NCCN1CCOCC1)c1ccc2nc(Cc3ccccc3)oc2c1 | 631
25 | Cc1ccc(N2CCN(Cc3nc4nc(C)cc(N5CCCC5)n4n3)CC2)cc1 | 639
26 | O=C(N[C@H]1C[C@@H]2C[C@H]1N(C(=O)c1ccccc1Cl)C2)c1ccccc1 | 717
27 | Cc1ccn2cc(-c3ccc(NC(=O)c4ccc5ccccc5c4)cc3)nc2n1 | 710
28 | O=C(NCCCN1CCCC1=O)C1CCN(c2cncnc2N2CCOCC2)CC1 | 535
29 | Cn1cccc1C(=O)N1CC[C@@H]2CN(S(C)(=O)=O)[C@@H]2C1 | 624
30 | COC[C@@H]1CN(S(=O)(=O)Cc2ccccc2)C[C@H]1c1nc(C)no1 | 836
31 | COC(=O)c1ccc(-c2nc3cnccn3c2Nc2ccc(C)c(Cl)c2)cc1 | 1050
32 | O=c1ccn(-c2ccc(Cl)cc2)nc1-c1nc(-c2ccccc2Cl)no1 | 963
33 | CC(C)CCNC(=O)C1CCCN(c2ccc(=O)n(-c3cccc(F)c3)n2)C1 (centres undefined) | 868
34 | Cc1cc(=O)n(CC(=O)Nc2ccccc2C)c(N)n1 | 590
35 | O=c1ccn(-c2cccc(F)c2)nc1-c1nc(-c2ccc(F)c(Cl)c2)no1 | 984
36 | CC1CCC(NC(=O)C2CCN(S(=O)(=O)c3cc(C(=O)N(C)C)cs3)CC2)CC1 (centres undefined) | 797
37 | Cc1ccc(NC(=O)N2CCC3(CC2)NC(=O)c2cc(F)ccc2N3C)cc1C | 832
38 | COc1cc2c(cc1OC)CN(S(=O)(=O)CCCNC(=O)CC1CCCCC1)CC2 | 767
39 | CCN(CC)CCCNC(=O)CCc1c(-c2ccc(Cl)cc2)nc2ccccn12 | 558
40 | COc1ccc(-c2nnc(-c3cccc(S(=O)(=O)N4CCCCC4)c3)o2)cc1 | 1060
41 | Cn1ncc2c3ccccc3n(CC(=O)NC3CCN(Cc4ccccc4)CC3)c2c1=O | 624
42 | CCCOc1nccnc1NC1CCN(C(=O)c2cccs2)CC1 | 814
43 | Cc1ccc(-c2nc(-c3ccc(S(=O)(=O)N4CCC(C(=O)N5CCCC5)CC4)cc3)no2)cc1 | 1090
44 | O=C(NCc1ccc2c(c1)OCO2)C1=CCN(Cc2ccccc2)CC1 | 607
45 | CCCN1CCCCc2cc(C(=O)N(CC)C(C)C)sc21 | 1240
46 | O=C(NC1CCN(c2cc(-c3cccs3)[nH]n2)C1)c1cccc(OC(F)(F)F)c1 (centres undefined) | 828

Row | Structure (SMILES) | RP-LC retention time [s]
47 | COC(=O)c1cccc(Nc2c(-c3cccc(Br)c3)nc3cnccn23)c1 | 918
48 | CCCNc1cc(N2CCCC(CCC(=O)NCc3ccc(F)cc3)C2)ncn1 (centres undefined) | 683
49 | COc1ccc(-c2nc(N(C)C3CCCCC3)c3ccccc3n2)cc1 | 918
50 | O=C(NC(c1ccccc1)c1nnc(-c2ccccc2)o1)c1ccco1 (centres undefined) | 876
51 | Cc1cc(-c2nnc(C3CCC3)o2)c(C)n1CC(=O)NCc1ccc2c(c1)OCO2 | 816
52 | CC(C)NC(=O)c1ccc(OCC2CCCN(C(=O)c3ccc(F)cc3F)C2)cc1 (centres undefined) | 869
53 | Cc1ccc2nc(-c3ccccc3F)c(Nc3ccc(Cl)cc3)n2c1 | 754
54 | FC(F)(F)c1nc(N2CCN(Cc3ccccc3)CC2)nc2c1CCCCC2 | 885
55 | CCCNC(=O)C1CCCN(c2ccc(SCC(=O)Nc3cccc(CC)c3)nn2)C1 (centres undefined) | 733
56 | COC(=O)c1ccc(C2CC(=O)NC3=C2C(=O)CC(c2ccccc2Cl)C3)cc1 (centres undefined) | 881
57 | CC(=O)Nc1c(C)nn(-c2ccccc2)c1N1CCC(C(=O)N2CCN(c3ccccn3)CC2)CC1 | 569
58 | COc1ccc(C2(C(=O)Nc3cc(-c4ccco4)no3)CC2)cc1 | 1000
59 | CCCc1cc(N2CCN(C(=O)c3ccc(C#N)cc3)CC2)nc2nnc(C)n12 | 610
60 | O=C(c1ccc(F)c(Cl)c1)N1CCC(n2c(-c3ccco3)nc3cccnc32)C1 (centres undefined) | 800
61 | CNC(=O)Cc1csc(NC(=O)c2ccc(OCC(=O)C3CC3)cc2)n1 | 631
62 | CCCCC(=O)N1CCN(C2CCN(CCOC)C2=O)CC1 (centres undefined) | 535
63 | CNC(=O)c1cnn(-c2cccc(F)c2)c1-n1cccc1 | 777
64 | O=C(Cn1cnc2nc(N3CCC(C(=O)NC4CC4)CC3)sc2c1=O)NCCC1=CCCCC1 | 698
65 | Cc1cnc(-c2ccccc2)n1C1CCCN(S(=O)(=O)c2ccc3c(c2)OCCO3)C1 (centres undefined) | 712
66 | Cc1ccc(C)c(N2CCN(c3cc(C(=O)O)c4cc(NS(C)(=O)=O)ccc4n3)CC2)c1 | 1110
67 | COCC1(O)CCOC2(CCN(Cc3cccc(Cl)c3F)CC2)C1 (centres undefined) | 560
68 | COc1ccc(C(=O)N2C[C@H](c3nc(-c4ccncc4)no3)[C@@H](C)C2)c(OC)c1 | 743
69 | COc1ccc(S(=O)(=O)N2CCC(C(=O)Nc3nnc(C4CCCO4)o3)CC2)cc1 (centres undefined) | 658

Row | Structure (SMILES) | RP-LC retention time [s]
70 | CCOc1ccc(-c2[nH]ncc2CNS(=O)(=O)Cc2ccc(Cl)cc2)cc1 | 861
71 | CCOC(=O)C1CCN(c2ncnc3c2cnn3-c2ccccc2)CC1 | 944
72 | Cc1c(C(=O)N2CCOCC2)cnn1-c1cc(-c2nc(C(C)(C)C)no2)ccn1 | 931
73 | CC(C)n1cnc2cc(CNC(=O)c3ccccc3F)ccc21 | 606
74 | CCc1ccc(CNC(=O)CC2CCN(C(=O)c3[nH]c(C)c(C(=O)OC)c3C)CC2)cc1 | 795
75 | O=S(=O)(NCc1cccnc1-c1ccc(F)cc1)c1ccc(F)cc1 | 737
76 | O=C1COc2ccccc2N1Cc1nc(-c2ccc(F)cc2)no1 | 984
77 | Cn1c(=O)n(C)c2cc(S(=O)(=O)C3CCCCC3)c(NC(=O)c3ccccc3F)cc21 | 940
78 | Cc1nc2cc(-c3noc(COc4ccc(Cl)cc4)n3)ccc2o1 | 1060
79 | CCOC(=O)c1c(C)[nH]c(C(=O)N2CCC(CC(=O)N3CCCCC3)CC2)c1C | 741
80 | CCCn1c(=O)sc2cc(S(=O)(=O)N3CCC(C(=O)NC(C)C)CC3)ccc21 | 818
81 | Cc1ccc(-c2ncc(C(=O)NCc3ccccc3C)c(-c3ccncc3)n2)cc1 | 909
82 | Cc1ccccc1-c1nnc(COc2ccc(NC(=O)c3sccc3C)cc2)o1 | 1010
83 | CCN1CCCC(OC(=O)C(c2ccccc2)c2ccccc2)C1 (centres undefined) | 802
84 | COCCN1C(=O)[C@H]2CN(C(=O)Nc3ccccc3)C[C@H]2C1=O | 732
85 | Cc1ccccc1Cn1c(CNC(=O)Cc2ccccc2)nc2ccccc21 | 645
86 | CCS(=O)(=O)N1CCCc2cc(C(=O)N3CCOCC3)ccc21 | 679
87 | CCOC(=O)c1ccc(NC(=O)Cn2cnc3nc(N4CCCC(C(=O)NC)C4)sc3c2=O)cc1 (centres undefined) | 658
88 | CCn1c(=O)c(=O)n(CC(=O)NCCN2CCCCC2)c2cccnc21 | 565
89 | Cc1ccc(-c2csc(Cc3nc(-c4ccc(F)cc4)no3)n2)cc1 | 1310
